Consider 20 molecules from US9896445B2, “Heterocyclic inhibitors of ERK1 and ERK2 and their use in the treatment of cancer” (Asana Biosciences, LLC, priority 2015, dated 2018).

The target in one test is T1, ERK2 (Homo sapiens, UniProt P28482).
T1 construct: purchased Jubilant Biosys
Briefly: ERK2 HTRF (biochemical) assay. In short, it runs like this:
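Readout was time-resolved FRET between europium anti-phospho-MBP and streptavidin-APC after a 60-min room-temperature kinase step. That step used ERK2 (25 nM in enzyme mix), biotinylated MBP peptide (1 uM) and ATP (24 uM) from the substrate mix, in pH 7.5 Tris buffer.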
(In general: TR-FRET usually uses a lanthanide donor and a delayed reading to cut background.)

For another test, the target named is T2, ERK1 (Homo sapiens, UniProt P27361).
T2 construct: purchased Jubilant Biosys
T2 sequence (P27361 whole entry): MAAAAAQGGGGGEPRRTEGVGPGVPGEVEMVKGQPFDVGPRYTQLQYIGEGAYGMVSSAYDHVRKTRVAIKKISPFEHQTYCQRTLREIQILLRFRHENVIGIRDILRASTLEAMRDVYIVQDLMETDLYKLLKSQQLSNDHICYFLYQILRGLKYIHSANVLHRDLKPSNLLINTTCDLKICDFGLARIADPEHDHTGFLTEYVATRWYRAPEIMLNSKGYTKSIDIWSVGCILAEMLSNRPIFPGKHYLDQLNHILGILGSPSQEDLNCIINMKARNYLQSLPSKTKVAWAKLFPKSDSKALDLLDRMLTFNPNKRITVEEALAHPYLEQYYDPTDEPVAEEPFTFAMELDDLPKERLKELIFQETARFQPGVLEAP
Briefly: ERK1 HTRF (biochemical) assay. How it is done: ERK1 and ERK2 HTRF (Biochemical) Assays
These assays employed a homogeneous time resolved fluorescence (HTRF) technique. […] The plate was incubated at room temperature for 60 min with shaking. […] The IC50 values (half maximal inhibitory concentration values) were subsequently determined using a sigmoidal dose-response curve (variable slope) in GraphPad Prism® 5 software.

T1 sequence (P28482 whole entry): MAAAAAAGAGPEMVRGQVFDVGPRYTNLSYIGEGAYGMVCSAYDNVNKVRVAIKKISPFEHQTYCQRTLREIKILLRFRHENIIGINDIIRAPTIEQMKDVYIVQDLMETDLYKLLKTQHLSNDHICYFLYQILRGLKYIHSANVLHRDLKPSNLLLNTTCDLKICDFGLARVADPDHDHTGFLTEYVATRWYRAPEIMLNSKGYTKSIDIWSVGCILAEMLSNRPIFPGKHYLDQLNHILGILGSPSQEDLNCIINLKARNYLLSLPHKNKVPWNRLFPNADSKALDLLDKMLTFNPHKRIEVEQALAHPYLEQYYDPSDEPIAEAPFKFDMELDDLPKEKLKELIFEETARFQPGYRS

Consider `Cc1cnc(NC2CCOCC2)nc1-n1cnc(C(=O)NCc2sccc2CO)c1` [Example 284, N-((3-(hydroxy-methyl)thiophen-2-yl)methyl)-1-(5-methyl-2-((tetrahydro-2H-pyran-4-yl)amino)-pyrimidin-4-yl)-1H-imidazole-4-carboxamide], for which the IC50 against ERK2 (HTRF) was no more than 50 nM; at ERK1 (HTRF) it was less than 50 nM.

For the molecule `Cc1cnc(Nc2ccc(F)cc2Cl)nc1-n1cnc(C(=O)NC(CN)c2cccc(Cl)c2)c1` (stereo not shown) [Compound 232, N-(2-amino-1-(3-chlorophenyl)ethyl)-1-(2-((2-chloro-4-fluorophenyl)amino)-5-methyl-pyrimidin-4-yl)-1H-imidazole-4-carboxamide], the values for the half-inhibitory concentration (IC50) at ERK2 (HTRF) and against ERK1 (HTRF) were no more than 50 nM and less than 50 nM, respectively.

`Cc1cnc(NC2CCOc3ccccc32)nc1-n1cnc(C(=O)N[C@H](CN)c2cccc(Cl)c2)c1` (stereo partly drawn) [Example 271, N-((S)-2-amino-1-(3-chlorophenyl)ethyl)-1-(2-(chroman-4-ylamino)-5-methylpyrimidin-4-yl)-1H-imidazole-4-carboxamide]: the half-inhibitory concentration (IC50) against ERK2 (HTRF) is no more than 50 nM; on ERK1 (HTRF), less than 50 nM.

Take `CC[C@@H](CO)Nc1ncc(C)c(-n2ccc(C(=O)N[C@H](CO)c3cccc(Cl)c3)c2)n1` [Compound 219, N-((S)-1-(3-chlorophenyl)-2-hydroxyethyl)-1-(2-(((S)-1-hydroxy-butan-2-yl)amino)-5-methylpyrimidin-4-yl)-1H-pyrrole-3-carboxamide]: the results for the concentration for half-maximal inhibition (IC50) at ERK2 (HTRF) and against ERK1 (HTRF) were no more than 50 nM and less than 50 nM, respectively.

As to `Cc1cnc(Nc2ccc(F)cc2)nc1-n1ccc(C(=O)NC(CO)c2cccc(Cl)c2)c1` (stereo not shown) [Compound 113, N-(1-(3-chloro-phenyl)-2-hydroxy-ethyl)-1-(2-((4-fluorophenyl)amino)-5-methyl-pyrimidin-4-yl)-1H-pyrrole-3-carboxamide], the IC50 on ERK2 (HTRF) is no more than 50 nM; on ERK1 (HTRF) it was 50 to 100 nM.

Turning to `Cc1cnc(Nc2ccc(F)cc2Cl)nc1-n1cnc(C(=O)NC(CO)c2cccc(Cl)c2)c1` (stereo not shown) [Compound 166, 1-(2-((2-chloro-4-fluorophenyl)amino)-5-methyl-pyrimidin-4-yl)-N-(1-(3-chlorophenyl)-2-hydroxyethyl)-1H-imidazole-4-carboxamide], the IC50 at ERK2 (HTRF) was no more than 50 nM; at ERK1 (HTRF), less than 50 nM.

Consider `Cc1cn(-c2nc(Nc3ccc(F)cc3)ncc2C)cc1C(=O)NC(CO)c1ccccc1` (stereo not shown) [Compound 108, 1-(2-((4-fluoro-phenyl)amino)-5-methylpyrimidin-4-yl)-N-(2-hydroxy-1-phenylethyl)-4-methyl-1H-pyrrole-3-carboxamide], for which the concentration for half-maximal inhibition (IC50) is no more than 50 nM against ERK2 (HTRF) and less than 50 nM at ERK1 (HTRF).

On to `Cc1cnc(N[C@H]2CCOC2)nc1-n1cnc(C(=O)NCc2cccc(C#N)c2)c1` [Example 310, (S)-N-(3-cyano-benzyl)-1-(5-methyl-2-((tetrahydrofuran-3-yl)amino)-pyrimidin-4-yl)-1H-imidazole-4-carboxamide], for which the 50% inhibitory concentration (IC50) against ERK2 (HTRF biochemical assay) is no more than 50 nM; on ERK1 (HTRF biochemical assay), 100 to 500 nM.

`Cc1cnc(N[C@H]2CCOC2)nc1-n1cnc(C(=O)NCc2cc(Cl)cc(Cl)c2)c1` [Example 313, (S)-N-(3,5-dichloro-benzyl)-1-(5-methyl-2-((tetrahydrofuran-3-yl)amino)-pyrimidin-4-yl)-1H-imidazole-4-carboxamide]: the concentration for half-maximal inhibition (IC50) was no more than 50 nM against ERK2 (HTRF biochemical assay) and less than 50 nM on ERK1 (HTRF biochemical assay).

`Cc1cnc(NC2CCOCC2)nc1-n1cnc(C(=O)N[C@H](CNCCO)c2cccc(Cl)c2)c1` [Example 333, (S)-N-(1-(3-chlorophenyl)-2-((2-hydroxyethyl)amino)ethyl)-1-(5-methyl-2-((tetrahydro-2H-pyran-4-yl)amino)-pyrimidin-4-yl)-1H-imidazole-4-carboxamide]: the IC50 was no more than 50 nM against ERK2 (HTRF biochemical assay) and less than 50 nM at ERK1 (HTRF biochemical assay).

`Cc1cnc(NCc2cccnc2)cc1-n1ccc(C(=O)NC(CO)c2ccc(F)c(Cl)c2)c1` (stereo not shown) [Compound 193, N-(1-(3-chloro-4-fluorophenyl)-2-hydroxyethyl)-1-(5-methyl-2-((pyridin-3-ylmethyl)-amino)pyridin-4-yl)-1H-pyrrole-3-carboxamide]: the IC50 against ERK2 (HTRF) and against ERK1 (HTRF) was 100 to 500 nM in each case.

As for `Cc1cnc(NC2CCOCC2)nc1-n1cnc(C(=O)NC(CO)c2cccc(C(C)(C)C)c2)c1` (stereo not shown) [Example 258, N-(1-(3-(tert-butyl)phenyl)-2-hydroxyethyl)-1-(5-methyl-2-((tetrahydro-2H-pyran-4-yl)amino)-pyrimidin-4-yl)-1H-imidazole-4-carboxamide], the figures for the half-inhibitory concentration (IC50) at ERK2 (HTRF) and at ERK1 (HTRF) were no more than 50 nM and less than 50 nM, respectively.

On to `Cc1cnc(Nc2ccc3c(c2)OC(F)(F)O3)nc1-n1ccc(C(=O)NC(CO)c2ccccc2)c1` (stereo not shown) [Compound 63, 1-(2-((2,2-difluoro-benzo[d][1,3]dioxol-5-yl)amino)-5-methylpyrimidin-4-yl)-N-(2-hydroxy-1-phenylethyl)-1H-pyrrole-3-carboxamide], for which the figures for the half-inhibitory concentration (IC50) against ERK2 (HTRF) and against ERK1 (HTRF) were no more than 50 nM and less than 50 nM, respectively.

In the case of `CC[C@@H](CO)Nc1ncc(C)c(-n2cnc(C(=O)N[C@H](CO)c3cccc(Cl)c3)c2)n1` [Compound 220, N-((S)-1-(3-chlorophenyl)-2-hydroxyethyl)-1-(2-(((S)-1-hydroxy-butan-2-yl)amino)-5-methylpyrimidin-4-yl)-1H-imidazole-4-carboxamide], the results for the half-inhibitory concentration (IC50) at ERK2 (HTRF) and at ERK1 (HTRF) were no more than 50 nM and less than 50 nM, respectively.

As to `Cc1cnc(N[C@H]2CCOC2)nc1-n1cnc(C(=O)NCc2cccc(Cl)c2CO)c1` [Example 270], the half-inhibitory concentration (IC50) against ERK2 (HTRF) is no more than 50 nM; at ERK1 (HTRF) it was less than 50 nM.

Consider `Cc1cnc(Nc2ccc3c(c2)OCO3)nc1-n1cc(C(=O)NC(CO)c2cccc(Cl)c2)cn1` (stereo not shown) [Compound 41, 1-(2-(benzo[d][1,3]dioxol-5-ylamino)-5-methylpyrimidin-4-yl)-N-(1-(3-chloro-phenyl)-2-hydroxy-ethyl)-1H-pyrazole-4-carboxamide], for which the figures for the IC50 against ERK2 (HTRF) and against ERK1 (HTRF) were no more than 50 nM and 100 to 500 nM, respectively.

`Cc1cnc(Nc2ccc3c(c2)OCO3)nc1-n1ccc(C(=O)NC(CO)c2cccnc2)c1` (stereo not shown) [Compound 103, 1-(2-(benzo[d][1,3]dioxol-5-ylamino)-5-methylpyrimidin-4-yl)-N-(2-hydroxy-1-(pyridin-3-yl)ethyl)-1H-pyrrole-3-carboxamide]: the IC50 against ERK2 (HTRF) is no more than 50 nM; on ERK1 (HTRF), 100 to 500 nM.

Consider `Cc1cnc(Nc2ccc(F)cc2Cl)cc1-n1cnc(C(=O)NC(CO)c2ccccc2)c1` (stereo not shown) [Compound 85, 1-(2-((2-chloro-4-fluorophenyl)amino)-5-methylpyridin-4-yl)-N-(2-hydroxy-1-phenylethyl)-1H-imidazole-4-carboxamide], for which the IC50 at ERK2 (HTRF) and against ERK1 (HTRF) was 100 to 500 nM each time.

Take `Cc1cnc(Nc2ccc3c(c2)OC(F)(F)O3)nc1-n1cnc(C(=O)NCc2cccc(Cl)c2CO)c1` [Example 332, N-(3-chloro-2-(hydroxymethyl)-benzyl)-1-(2-((2,2-difluorobenzo[d] [1,3]dioxol-5-yl)amino)-5-methylpyrimidin-4-yl)-1H-imidazole-4-carboxamide]: the 50% inhibitory concentration (IC50) against ERK2 (HTRF biochemical assay) is no more than 50 nM; against ERK1 (HTRF biochemical assay), less than 50 nM.

Take `O=C(Nc1cnn(-c2ccnc(Nc3ccc4c(c3)OCO4)n2)c1)N[C@H](CO)c1cccc(Cl)c1` [Compound 21, (S)-1-(1-(2-(benzo[d][1,3]dioxol-5-ylamino)-pyrimidin-4-yl)-1H-pyrazol-4-yl)-3-(1-(3-chlorophenyl)-2-hydroxyethyl)urea]: the IC50 against ERK2 (HTRF) was no more than 50 nM; against ERK1 (HTRF) it was less than 50 nM.

One may read the IC50 as the concentration at which inhibition is half-maximal. A high value points to a need for much substance.
